Columns and labels:
[1] = cynomolgus monkey, in vivo, sc, 40 mg/kg
AR mRNA = AR mRNA expression in MDA-MB-453 breast cancer orthotopic model; assay type: in vivo, human; conditions: Study 2; tumor tissue, normalized to human actin; 50 mg/kg s.c. 5 days per week for 2 weeks
testosterone = test: Serum testosterone levels in cynomolgus monkeys (ELISA); assay type: in vivo; conditions: cynomolgus monkey, 40 mg/kg subcutaneously, 40 mg/kg
Method: Serum testosterone protein levels were measured in the plasma with an ELISA kit (Enzo Life Sciences), following the manufacturer's instructions.

[2] = cynomolgus monkey, in vivo, sc, 40 mg/kg; remark: listed apart in the source
full-length AR = test: Western blot of full-length AR in C4-2B cells (time course); assay type: cell-based, human; conditions: 24 hours and 48 hours, normalized to GAPDH
Method: Protein levels in the cells were also analyzed. The cells were harvested in RIPA buffer containing protease inhibitors. The presence of bands for full-length AR was detected by western blot using AR antibody (N-20, SC-816, Santa Cruz Biotechnology).

[3] = cynomolgus monkey, in vivo, sc, 40 mg/kg; remark: listed apart in the source

Row | Sequence | Plasma BUN [1] [mg/dL] | Plasma Creatinine [1] [mg/dL] | AR RNA expression inhibited compared to the control group (AR mRNA) [%] | Serum testosterone level (testosterone) [ng/mL] | HCT [2] [%] | Hemoglobin [2] [g/dL] | Platelets [2] [µL] | RBC [2] [µL] | WBC [2] [µL] | full-length AR protein (western blot) (full-length AR) | ALT [3] [IU/L] | AST [3] [IU/L] | Albumin [3] [g/dL]
1 | TGATTTAATGGTTGCA [ISIS 569236] (cEt/MOE gapmer chemistry, further chemistry not given here) | 24.9 | 0.87 | 19 | 12.7 | 44 | 13.1 | 358000 | 5.7e+06 | 14400 | significantly reduced | 35 | 45 | 4.1
2 | TTGATTTAATGGTTGC [ISIS 560131] (MOE and (S)-cEt gapmer chemistry, further chemistry not given here) | 23.7 | 0.84 | 35 | 14.7 | 44 | 13.1 | 392000 | 5.8e+06 | 11300 | significantly reduced | 68 | 87 | 4.0

Reference: USRE48461E1, “Modulation of androgen receptor expression” (Ionis Pharmaceuticals, Inc., priority 2012, dated 2021)
